Results published in patent US20160199371A1, “PHARMACEUTICAL COMPOSITION HAVING PYRIMIDINE COMPOUND AS ACTIVE INGREDIENT” (ASTELLAS PHARMA INC, priority 2013, published 2016).

Legend:
human recombinant FGFR4 = molecular target: T1, human recombinant FGFR4 (Homo sapiens, UniProt P22455); experiment: FGFR4 enzyme assay; format: biochemical; settings: test compound 10 nM; read-out: FGFR4 Kinase Activity Inhibitory Rate
T1 construct: purchased CARNA BIOSCIENCES; Inc. 08CBS-0716C
Experimental: The outline of the measurement method is shown below.
Into a well of a 384-well plate,
(1) 4 μL of a compound solution was added,
(2) 2 μL of an FGFR4 enzyme (3 ng/μL) diluted with a reaction buffer was added,
(4) the mixture was allowed to undergo a reaction at room temperature for 30 minutes (concentration of the test compound species during assay of 10 nM).
(5) 15 μL/well of a 20 mM EDTA solution was added thereto to stop the reaction, and then in a LabChip EZ Reader (Perkin Elmer), the amount of a phosphorylated substrate peptide produced by the kinase reaction of FGFR4 was measured.

[1] = tested on: FGF19 gene amplification-positive liver cancer cell (HuH-7); experiment: Antitumor test using mouse model subcutaneously transplanted with HuH-7 cells; format: in vivo, nude mice; settings: 1 mg/kg/day oral once daily
Experimental: HuH-7 cells at 3×10^6 cells/0.1 mL (solution suspended in PBS and Matrigel at 1:1) was subcutaneously transplanted to nude mice (CanN.Cg-Foxn1 nu/CrlCrlj(nu/nu): Charles River Laboratories Japan, Inc., male, 4-5 week old). After about 3 weeks after the transplantation, the mice were grouped according to the tumor volumes and body weights. […] The test compound was made into a suspension using a 0.5% aqueous methyl cellulose solution and orally administered once a day daily. […] For the tumor volume, a short diameter and long diameter were measured using a calipers, and the tumor volume was calculated by (tumor volume mm^3)=(short diameter mm×short diameter mm×long diameter mm)/2. […] The tumor growth inhibitory rate of test compound was calculated by <the tumor growth inhibitory rate (%)>=<1−(increase in the tumor volume of the test compound-administered group/increase in the tumor volumes of the control group)>×100. The increase in the tumor volume was calculated by (increase in the tumor volume)=(the tumor volume on the final day of each group)−(the tumor volume on the 0th day of each group).

HuH-7 cell = experiment: Growth assay of FGF19 gene amplification-positive liver cancer cell (HuH-7); format: cell-based; settings: Homo sapiens, Huh-7, 120 h; test compound 37 nM, 5 days; read-out: HuH-7 Cell Growth Inhibitory Rate
Experimental: After 5 days from the addition of the test compound solution, the number of HuH-7 cells were measured with ARVO×3 (Perkin Elmer) using a CellTiter-Glo Luminescent Cell Viability Assay (Promega). […] That is, the inhibitory rate was calculated by <the growth inhibitory rate (%)>=<1−(the measured value of the well to which the test compound was added>−<the measured value of the well to which the cells were not added (only medium present)>)/{<the measured value of the well to which the test compound was not added (only DMSO was added)>−<the measured value of the well to which the cells were not added (only medium present)}]×100.

[2] = tested on: surgically unresectable liver cancer; settings: extension from 7.9 months; N Engl J Med. 2008; cited from earlier work

T1 sequence (P22455 22-802): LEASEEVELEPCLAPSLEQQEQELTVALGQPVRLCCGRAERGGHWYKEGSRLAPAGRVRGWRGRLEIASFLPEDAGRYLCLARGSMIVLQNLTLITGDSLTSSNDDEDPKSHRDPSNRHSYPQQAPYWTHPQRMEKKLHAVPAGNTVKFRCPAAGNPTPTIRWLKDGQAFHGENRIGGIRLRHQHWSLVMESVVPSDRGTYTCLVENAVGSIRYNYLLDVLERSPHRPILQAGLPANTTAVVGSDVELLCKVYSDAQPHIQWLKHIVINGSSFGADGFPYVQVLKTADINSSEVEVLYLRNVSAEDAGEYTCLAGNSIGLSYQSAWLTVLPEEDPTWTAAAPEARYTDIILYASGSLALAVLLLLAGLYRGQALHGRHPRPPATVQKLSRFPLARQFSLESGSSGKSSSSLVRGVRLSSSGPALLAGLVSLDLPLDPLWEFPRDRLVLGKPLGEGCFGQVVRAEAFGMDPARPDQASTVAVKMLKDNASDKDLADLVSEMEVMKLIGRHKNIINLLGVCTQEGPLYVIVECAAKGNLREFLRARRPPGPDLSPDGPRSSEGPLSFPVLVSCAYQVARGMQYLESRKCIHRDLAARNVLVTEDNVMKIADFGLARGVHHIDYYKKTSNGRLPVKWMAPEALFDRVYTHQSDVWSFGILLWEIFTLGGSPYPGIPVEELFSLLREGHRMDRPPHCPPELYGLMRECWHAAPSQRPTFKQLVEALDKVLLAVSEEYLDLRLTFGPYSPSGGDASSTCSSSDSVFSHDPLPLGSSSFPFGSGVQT

| inhibition at 0.01 µM (human recombinant FGFR4) | Compound | Tumor growth inhibitory rate ([1]; final day 10th day) | inhibition at 0.037 µM (HuH-7 cell) | Tumor growth inhibitory rate ([1]; final day 9th day) | survival [2] |
| --- | --- | --- | --- | --- | --- |
| 78% | COc1cc(Nc2ncc(OCc3c(F)c(OC)cc(OC)c3F)cn2)ccc1N1CCC(N2CCN(C)CC2)CC1 [Compound A, 5-[(2,6-difluoro-3,5-dimethoxybenzyl)oxy]-N-{3-methoxy-4-[4-(4-methylpiperazin-1-yl)piperidin-1-yl]phenyl}pyrimidin-2-amine] | 80% | 53% |  |  |
| 82% | COc1cc(OC)c(F)c(COc2cnc(Nc3ccc(N4CCN(C)CC4)cc3)nc2)c1F [Compound D, 5-[(2,6-difluoro-3,5-dimethoxybenzyl)oxy]-N-[4-(4-methylpiperazin-1-yl)phenyl]pyrimidin-2-amine] | 67% | 65% |  |  |
| 31% | COc1cc(OC)c(F)c(COc2cnc(Nc3cc(CN4CCN(C)CC4)n(C)n3)nc2)c1F [Compound E, 5-[(2,6-difluoro-3,5-dimethoxybenzyl)oxy]-N-{1-methyl-5-[(4-methylpiperazin-1-yl)methyl]-1H-pyrazol-3-yl}pyrimidin-2-amine] |  | 11% | 44% |  |
|  | CNC(=O)c1cc(Oc2ccc(NC(=O)Nc3ccc(Cl)c(C(F)(F)F)c3)cc2)ccn1 [sorafenib] |  |  |  | 10.7 months |
